These results are taken from patent US12371428B2 (Exelixis, Inc., priority 2019, dated 2025).

Bounds are passed on as bounds.

Assay type in all cases: cell-based
Assay [1] deals with Mer (phospho-Mer, MERTK-transfected 293A cells) (Homo sapiens (Human), UniProt Q12866). The assay is described as follows: Mer autophosphorylation ELISA in transient transfected 293A cells (Example H). As to conditions: cellular activity; Mer autophosphorylation ELISA in transient transfected 293A cells. In short, it runs like this: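 293A cells transiently transfected with human MERTK were treated 1 h in serum-free medium with an 8-point compound dilution (0.3% DMSO final). Lysates were assayed by phospho-Mer sandwich ELISA against a phospho-Mer standard; IC50 came from a 4-parameter logistic fit, normalised to DMSO (100%) and reference-inhibitor (0%) controls.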
Sequence of Mer (phospho-Mer, MERTK-transfected 293A cells) (Q12866 21-999): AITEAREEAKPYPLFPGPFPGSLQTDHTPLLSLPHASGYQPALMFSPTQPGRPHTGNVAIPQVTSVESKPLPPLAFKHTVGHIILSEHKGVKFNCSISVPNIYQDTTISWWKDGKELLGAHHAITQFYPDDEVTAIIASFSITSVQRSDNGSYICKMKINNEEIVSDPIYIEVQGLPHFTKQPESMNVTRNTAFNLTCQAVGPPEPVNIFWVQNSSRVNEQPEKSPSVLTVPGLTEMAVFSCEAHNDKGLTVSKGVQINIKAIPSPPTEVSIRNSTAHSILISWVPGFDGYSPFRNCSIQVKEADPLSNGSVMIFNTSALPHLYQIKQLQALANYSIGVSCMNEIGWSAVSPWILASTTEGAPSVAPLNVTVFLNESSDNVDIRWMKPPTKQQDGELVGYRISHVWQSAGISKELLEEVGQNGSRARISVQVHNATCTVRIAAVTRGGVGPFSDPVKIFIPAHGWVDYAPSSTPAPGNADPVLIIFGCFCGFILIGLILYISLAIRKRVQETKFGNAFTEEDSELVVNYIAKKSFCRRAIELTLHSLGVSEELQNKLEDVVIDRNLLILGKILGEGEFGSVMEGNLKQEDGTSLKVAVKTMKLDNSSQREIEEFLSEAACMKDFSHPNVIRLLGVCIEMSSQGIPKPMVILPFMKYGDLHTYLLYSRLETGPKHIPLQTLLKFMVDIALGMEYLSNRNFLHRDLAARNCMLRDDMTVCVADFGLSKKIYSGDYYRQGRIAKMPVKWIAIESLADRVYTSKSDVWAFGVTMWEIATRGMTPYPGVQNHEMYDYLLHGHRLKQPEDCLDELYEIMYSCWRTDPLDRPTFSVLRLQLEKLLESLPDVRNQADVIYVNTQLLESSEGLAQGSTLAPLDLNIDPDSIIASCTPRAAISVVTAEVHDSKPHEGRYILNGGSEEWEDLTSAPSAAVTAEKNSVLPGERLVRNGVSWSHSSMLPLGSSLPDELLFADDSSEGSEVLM

For assay [2], the target named is Met (phospho-Met, HGF-stimulated PC-3 prostate cancer cells) (Homo sapiens (Human), UniProt P08581). The assay is described as follows: Met autophosphorylation ELISA in PC-3 cells (Example F). As to conditions: cellular activity; Met autophosphorylation ELISA in PC-3 cells; read-out: c-Met IC50. In outline:
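Sandwich ELISA for phospho-Met (panTyr) in PC-3 lysates. Cells starved 3 h serum-free, compound 1 h (8-pt curve, 0.3% DMSO), HGF 100 ng/mL 10 min. 100% = HGF + DMSO; 0% = HGF + reference inhibitor. IC50 by 4-parameter fit.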
In general terms: An ELISA detects its analyte on a solid surface through an enzyme-linked reagent.

The target of assay [3] is KDR (phospho-KDR, VEGF165-stimulated HUVEC cells) (Homo sapiens (Human), UniProt P35968). The experiment in a line: KDR autophosphorylation ELISA in HUVEC cells (Example G). As to conditions: cellular activity; KDR autophosphorylation ELISA in HUVEC cells. In outline:
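HUVECs were serum-starved 24 h, given compound as an 8-point dilution series (0.3% DMSO final) for 1 h, then stimulated with 100 ng/mL VEGF165 for 5 min. Lysate phospho-KDR was quantified by sandwich ELISA against a phospho-KDR standard, and IC50s came from a 4-parameter logistic fit.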

Sequence of Met (phospho-Met, HGF-stimulated PC-3 prostate cancer cells) (P08581 25-1390): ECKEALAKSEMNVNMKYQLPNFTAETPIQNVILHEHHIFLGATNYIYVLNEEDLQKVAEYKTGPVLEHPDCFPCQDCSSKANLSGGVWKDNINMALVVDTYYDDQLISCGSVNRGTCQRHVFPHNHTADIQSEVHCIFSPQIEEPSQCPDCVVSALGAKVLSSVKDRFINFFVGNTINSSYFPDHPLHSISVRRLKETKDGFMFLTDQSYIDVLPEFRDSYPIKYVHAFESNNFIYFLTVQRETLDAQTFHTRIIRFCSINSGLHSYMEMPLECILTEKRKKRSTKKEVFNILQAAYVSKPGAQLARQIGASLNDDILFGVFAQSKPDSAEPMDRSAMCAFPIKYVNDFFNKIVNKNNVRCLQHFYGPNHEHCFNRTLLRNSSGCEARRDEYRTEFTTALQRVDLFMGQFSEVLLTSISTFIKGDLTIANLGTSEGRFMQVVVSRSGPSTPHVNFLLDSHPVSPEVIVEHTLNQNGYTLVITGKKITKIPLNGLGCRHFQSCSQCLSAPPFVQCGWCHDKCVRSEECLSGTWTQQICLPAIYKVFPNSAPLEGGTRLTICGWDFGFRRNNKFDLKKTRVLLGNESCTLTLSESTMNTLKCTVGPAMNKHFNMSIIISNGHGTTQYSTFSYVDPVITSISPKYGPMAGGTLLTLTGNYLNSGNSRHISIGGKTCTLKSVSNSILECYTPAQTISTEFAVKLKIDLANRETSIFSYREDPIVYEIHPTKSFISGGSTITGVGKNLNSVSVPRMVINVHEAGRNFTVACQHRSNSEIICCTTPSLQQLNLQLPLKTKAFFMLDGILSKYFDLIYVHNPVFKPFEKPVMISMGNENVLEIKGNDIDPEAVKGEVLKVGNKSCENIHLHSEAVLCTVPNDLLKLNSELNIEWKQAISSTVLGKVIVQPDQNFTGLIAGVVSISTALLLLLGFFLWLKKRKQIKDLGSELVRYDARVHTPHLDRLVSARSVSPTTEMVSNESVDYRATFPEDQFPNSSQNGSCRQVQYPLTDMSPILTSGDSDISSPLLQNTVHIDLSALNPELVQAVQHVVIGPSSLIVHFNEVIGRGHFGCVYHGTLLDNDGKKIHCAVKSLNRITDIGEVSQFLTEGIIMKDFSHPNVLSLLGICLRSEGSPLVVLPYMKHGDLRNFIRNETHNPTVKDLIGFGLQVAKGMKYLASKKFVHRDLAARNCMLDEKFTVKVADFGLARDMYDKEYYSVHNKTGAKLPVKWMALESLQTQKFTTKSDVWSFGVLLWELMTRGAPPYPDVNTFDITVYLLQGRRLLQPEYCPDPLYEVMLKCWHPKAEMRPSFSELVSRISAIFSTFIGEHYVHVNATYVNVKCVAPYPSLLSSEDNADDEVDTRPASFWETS
Sequence of KDR (phospho-KDR, VEGF165-stimulated HUVEC cells) (P35968 20-1356): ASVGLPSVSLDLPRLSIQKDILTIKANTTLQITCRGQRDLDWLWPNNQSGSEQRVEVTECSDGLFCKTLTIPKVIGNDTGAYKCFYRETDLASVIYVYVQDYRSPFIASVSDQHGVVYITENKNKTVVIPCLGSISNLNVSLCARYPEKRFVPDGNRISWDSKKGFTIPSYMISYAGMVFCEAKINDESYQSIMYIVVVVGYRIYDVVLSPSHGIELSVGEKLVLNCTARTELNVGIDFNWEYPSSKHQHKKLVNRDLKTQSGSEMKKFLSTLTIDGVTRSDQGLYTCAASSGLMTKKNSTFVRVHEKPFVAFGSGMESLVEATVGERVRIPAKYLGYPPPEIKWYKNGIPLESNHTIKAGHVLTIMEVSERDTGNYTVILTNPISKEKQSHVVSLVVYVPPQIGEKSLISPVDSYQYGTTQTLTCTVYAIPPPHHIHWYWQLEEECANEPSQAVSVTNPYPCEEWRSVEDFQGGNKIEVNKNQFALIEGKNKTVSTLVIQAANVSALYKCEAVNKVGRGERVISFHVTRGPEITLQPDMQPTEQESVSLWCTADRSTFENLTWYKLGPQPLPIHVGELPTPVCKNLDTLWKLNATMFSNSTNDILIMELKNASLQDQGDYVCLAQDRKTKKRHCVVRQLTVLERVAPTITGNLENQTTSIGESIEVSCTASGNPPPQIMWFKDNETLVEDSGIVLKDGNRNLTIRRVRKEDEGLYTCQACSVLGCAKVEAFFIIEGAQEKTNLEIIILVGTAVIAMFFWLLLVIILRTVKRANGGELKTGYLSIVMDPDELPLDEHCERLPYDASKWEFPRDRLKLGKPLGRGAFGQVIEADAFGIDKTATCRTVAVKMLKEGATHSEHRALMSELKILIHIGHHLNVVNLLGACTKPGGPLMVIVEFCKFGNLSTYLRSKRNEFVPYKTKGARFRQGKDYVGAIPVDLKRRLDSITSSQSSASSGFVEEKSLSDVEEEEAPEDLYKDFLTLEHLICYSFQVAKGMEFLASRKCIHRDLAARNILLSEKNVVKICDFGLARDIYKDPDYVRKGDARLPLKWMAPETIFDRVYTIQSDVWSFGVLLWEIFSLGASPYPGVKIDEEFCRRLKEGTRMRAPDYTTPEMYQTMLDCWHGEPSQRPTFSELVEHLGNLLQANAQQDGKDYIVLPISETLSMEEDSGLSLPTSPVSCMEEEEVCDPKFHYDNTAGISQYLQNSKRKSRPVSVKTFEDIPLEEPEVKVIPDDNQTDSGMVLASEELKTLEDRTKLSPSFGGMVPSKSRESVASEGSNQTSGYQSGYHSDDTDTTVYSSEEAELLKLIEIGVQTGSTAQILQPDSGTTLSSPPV

The IC50 is the midpoint of a concentration-inhibition curve. Take `COCc1ncc(C(=O)Nc2ccc(Oc3ccnc4cc(OC)c(OC)nc34)c(F)c2)c(O)c1-c1ccc(F)cc1` [Compound 301, N-[4-[(6,7-Dimethoxy-1,5-naphthyridin-4-yl)oxy]-3-fluorophenyl]-5-(4-fluorophenyl)-4-hydroxy-6-(methoxymethyl)pyridine-3-carboxamide]: the IC50 in assay [1], in assay [2] and in assay [3] was under 0.1 µM each time.
As for `COc1ccc2nccc(Oc3ccc(NC(=O)c4c(C)nc(C)c(-c5ccc(F)cc5)c4O)cc3)c2n1` [Compound 340, 5-(4-fluorophenyl)-4-hydroxy-N-[4-[(6-methoxy-1,5-naphthyridin-4-yl)oxy]phenyl]-2,6-dimethylpyridine-3-carboxamide], the IC50 in assay [1], in assay [2] and in assay [3] was under 0.1 µM each time.
Turning to `COc1ccc2nccc(Oc3ccc(NC(=O)c4cn(C(C)C)c(C)c(-c5ccc(F)cc5)c4=O)cc3)c2n1` [Compound 341, 5-(4-fluorophenyl)-N-[4-[(6-methoxy-1,5-naphthyridin-4-yl)oxy]phenyl]-6-methyl-4-oxo-1-propan-2-ylpyridine-3-carboxamide], the IC50 in assay [1] is under 0.1 µM; in assay [2], under 0.1 µM; in assay [3], over 0.3 µM.
`COc1ccc2nccc(Oc3ccc(NC(=O)c4cnc(C)c(-c5ccc(F)cc5)c4O)cc3)c2n1` [Compound 342, 5-(4-fluorophenyl)-4-hydroxy-N-[4-[(6-methoxy-1,5-naphthyridin-4-yl)oxy]phenyl]-6-methylpyridine-3-carboxamide]: the half-maximal inhibitory concentration (IC50) in assay [1], in assay [2] and in assay [3] was under 0.1 µM each time.
Consider `COc1ccc2nccc(Oc3ccc(NC(=O)c4ccc(C)n(-c5ccc(F)cc5)c4=O)cc3)c2n1` [Compound 343, 1-(4-fluorophenyl)-N-[4-[(6-methoxy-1,5-naphthyridin-4-yl)oxy]phenyl]-6-methyl-2-oxopyridine-3-carboxamide], for which the IC50 in assay [1], in assay [2] and in assay [3] was under 0.1 µM throughout.
In the case of `COc1ccc2nccc(Oc3ccc(NC(=O)c4c(C)nc(C)c(-c5ccc(F)cc5)c4O)cc3F)c2c1` [Compound 345, N-[3-fluoro-4-(6-methoxyquinolin-4-yl)oxyphenyl]-5-(4-fluorophenyl)-4-hydroxy-2,6-dimethylpyridine-3-carboxamide], the IC50 in assay [1], in assay [2] and in assay [3] was under 0.1 µM throughout.
For `COc1ccc2nccc(Oc3ccc(NC(=O)c4ccc(C)n(-c5ccc(F)cc5)c4=O)cc3F)c2c1` [Compound 346, N-[3-fluoro-4-(6-methoxyquinolin-4-yl)oxyphenyl]-1-(4-fluorophenyl)-6-methyl-2-oxopyridine-3-carboxamide], the IC50 in assay [1], in assay [2] and in assay [3] was under 0.1 µM throughout.
For `COc1ccc2nccc(Oc3ccc(NC(=O)c4cnc(C)c(-c5ccc(F)cc5)c4O)cc3F)c2c1` [Compound 347, N-[3-fluoro-4-(6-methoxyquinolin-4-yl)oxyphenyl]-5-(4-fluorophenyl)-4-hydroxy-6-methylpyridine-3-carboxamide], the IC50 in assay [1], in assay [2] and in assay [3] was under 0.1 µM throughout.
On to `COCCOc1ccc2nccc(Oc3ccc(NC(=O)c4ccc(C)n(-c5ccc(F)cc5)c4=O)cc3F)c2n1` [Compound 350, N-[3-fluoro-4-[[6-(2-methoxyethoxy)-1,5-naphthyridin-4-yl]oxy]phenyl]-1-(4-fluorophenyl)-6-methyl-2-oxopyridine-3-carboxamide], for which the IC50 in assay [1], in assay [2] and in assay [3] was under 0.1 µM each time.
For the molecule `Cc1ccc(C(=O)Nc2ccc(Oc3ccnc4ccc(OCCN5CCOCC5)nc34)c(F)c2)c(=O)n1-c1ccc(F)cc1` [Compound 351, N-[3-fluoro-4-[[6-(2-morpholin-4-ylethoxy)-1,5-naphthyridin-4-yl]oxy]phenyl]-1-(4-fluorophenyl)-6-methyl-2-oxopyridine-3-carboxamide], the IC50 in assay [1], in assay [2] and in assay [3] was under 0.1 µM in each case.
For `Cc1ncc(C(=O)Nc2ccc(Oc3ccnc4ccc(OCCN5CCOCC5)nc34)c(F)c2)c(O)c1-c1ccc(F)cc1` [Compound 352, N-[3-fluoro-4-[[6-(2-morpholin-4-ylethoxy)-1,5-naphthyridin-4 yl]oxy]phenyl]-5-(4-fluorophenyl)-4-hydroxy-6-methylpyridine-3-carboxamide], the IC50 in assay [1], in assay [2] and in assay [3] was under 0.1 µM each time.
On to `Cc1ccc(C(=O)Nc2ccc(Oc3ccnc4ccc(OCCN(C)C)nc34)c(F)c2)c(=O)n1-c1ccc(F)cc1` [Compound 353, N-[4-[[6-[2-(dimethylamino)ethoxy]-1,5-naphthyridin-4-yl]oxy]-3-fluorophenyl]-1-(4-fluorophenyl)-6-methyl-2-oxopyridine-3-carboxamide], for which the IC50 in assay [1], in assay [2] and in assay [3] was under 0.1 µM throughout.
As for `Cc1nc(C)c(-c2ccc(F)cc2)c(O)c1C(=O)Nc1ccc(Oc2ccnc3ccc(OCCN(C)C)nc23)c(F)c1` [Compound 354, N-[4-[[6-[2-(dimethylamino)ethoxy]-1,5-naphthyridin-4-yl]oxy]-3-fluorophenyl]-5-(4-fluorophenyl)-4-hydroxy-2,6-dimethylpyridine-3-carboxamide], the IC50 in assay [1], in assay [2] and in assay [3] was under 0.1 µM in each case.
Turning to `Cc1nc(C)c(-c2ccc(F)cc2)c(O)c1C(=O)Nc1ccc(Oc2ccnc3ccc(OCCN4CCOCC4)nc23)c(F)c1` [Compound 355, N-[3-fluoro-4-[[6-(2-morpholin-4-ylethoxy)-1,5-naphthyridin-4-yl)oxy]phenyl]-5-(4-fluorophenyl)-4-hydroxy-2,6-dimethylpyridine-3-carboxamide], the IC50 in assay [1], in assay [2] and in assay [3] was under 0.1 µM each time.
For `COc1ccc2nccc(Oc3ccc(NC(=O)c4cn(C)c(C)c(-c5ccc(F)cc5)c4=O)cc3)c2n1` [Compound 356, 5-(4-fluorophenyl)-N-[4-[(6-methoxy-1,5-naphthyridin-4-yl)oxy]phenyl]-1,6-dimethyl-4-oxopyridine-3-carboxamide], the IC50 in assay [1] was under 0.1 µM; in assay [2], under 0.1 µM; in assay [3] it was over 0.3 µM.
In the case of `COc1cc2nccc(Oc3ccc(NC(=O)c4nn(C(C)C)c(C)c(-c5ccc(F)cc5)c4=O)cc3F)c2nc1OC` [Compound 364, N-[4-[(6,7-dimethoxy-1,5-naphthyridin-4-yl)oxy]-3-fluorophenyl]-5-(4-fluorophenyl)-6-methyl-4-oxo-1-propan-2-ylpyridazine-3-carboxamide], the IC50 in assay [1], in assay [2] and in assay [3] was under 0.1 µM each time.
As to `C=C(C)c1cc(C(=O)Nc2ccc(Oc3ccnc4cc(OC)c(OC)nc34)c(F)c2)c(=O)n(-c2ccc(F)cc2)c1C` [Compound 367, N-[4-[(6,7-dimethoxy-1,5-naphthyridin-4-yl)oxy]-3-fluorophenyl]-1-(4-fluorophenyl)-6-methyl-2-oxo-5-prop-1-en-2-ylpyridine-3-carboxamide], the values for the IC50 in assay [1], in assay [2] and in assay [3] were under 0.1 µM, under 0.1 µM and 0.1 to 0.3 µM, respectively.
